Holding throughout (format): cell-based
Assay [1] has as its system primary human fibroblasts derived from IPF patients (LL29 cells). The experiment in a line: Inhibition of the fibrotic process: αSMA staining in TGF-β1 treated LL29 fibroblasts. As to conditions: Fibroblast; for EC50: 96 h, LL29 cells, TGF-β1 20 ng/mL, 4 days, % αSMA positive cells. As to the method: Representative compounds were screened using primary human fibroblasts (derived from IPF patients) treated with TGF-β1 to determine their ability to inhibit the fibrotic process.
LL29 cells are plated at 1,500 cells/well in 80 μL/well F12 medium supplemented with 1% Fetal Bovine Serum. […] Wells treated with TGF-β1 and containing DMSO were used as controls. […] Following incubation for 4 days, SYTOX green nucleic acid stain (Life Technologies [Thermo Fisher Scientific]) was added to the wells at a final concentration of 1 μM and incubated at room temperature for 30 min.

Another assay deals with IL-6. The experiment in a line: IL-6 inhibition in LPS-stimulated THP-1 cells (HTRF). The conditions noted are these: Homo sapiens; for inhibition at 10 µM: THP-1, read-out: percent inhibition at 10 μM; for EC50: THP-1 cells, LPS 500 ng/mL, 22 hours, IL6 HTRF. As to the method: THP-1 cells were cultured in basal media with 1% FBS for 24 hours before the start of the assay. […] THP-1 cells were plated at 5000 cells/well in the 384-well plates and incubated at 37° C. for 2 h. 500 ng/mL of LPS was added after 2 hours and cells were incubated for another 22 hours at 37° C. Plates were spun in a centrifuge for 1 minute at […] and a mixture of anti-IL6 XL665, and anti-IL6 Cryptate diluted in reconstitution buffer (Cisbio Inc.) was added to each well. Following incubation for 3 hrs at room temperature, Homogeneous Time-Resolved Fluorescence (HTRF) was measured using the Envision (Perkin Elmer) at 665 nm and […]. The ratio of fluorescence at 665 nm to 620 nm was used as a readout for IL6 quantification. All samples were processed in duplicate. Readings were normalized to DMSO treated cells and normalized activities were utilized for EC50 calculations using the dose-response log (inhibitor) vs. response -variable slope (four parameters) nonlinear regression feature available in GraphPad Prism 5.0 (or Dotmatics).
(Time-resolved FRET reads energy transfer from a long-lived donor to a nearby acceptor.)

The subject of a further assay is Wnt activity. The experiment in a line: Wnt activity screening assay, Sp5-Luc reporter gene in SW480 cells. As to conditions: Homo sapiens; for inhibition at 10 µM: SW480, read-out: percent inhibition at 10 μM; for EC50: Sp5-Luc reporter, SW480 cells, overnight incubation. An excerpt:
The screening assay for Wnt activity is described as follows. Reporter cell lines can be generated by stably transducing cancer cell lines (e.g., colon cancer) or primary cells (e.g., IEC-6 intestinal cells) with a lentiviral construct that includes a Wnt-responsive promoter driving expression of the firefly luciferase gene.
SW480 colon carcinoma cells were transduced with a lentiviral vector expressing luciferase with a human Sp5 promoter consisting of a sequence of eight TCF/LEF binding sites. SW480 cells stably expressing the Sp5-Luc reporter gene and a hygromycin resistance gene were selected by treatment with 150 μg/mL of hygromycin for 7 days. These stably transduced SW480 cells were expanded in cell culture and used for all further screening activities. […] For Sp5-Luc reporter gene assays, the cells were plated at 4,000 cells/well in 384-well plates with medium containing 1% fetal bovine serum and incubated overnight at 37° C. and 5% CO2. Following incubation, 20 μl of BrightGlo luminescence reagent (Promega) was added to each well of the 384-well assay plates. The plates were placed on an orbital shaker for 2 min and then luminescence was quantified using the Envision (Perkin Elmer) plate reader. Readings were normalized to DMSO only treated cells, and normalized activities were utilized for EC50 calculations using the dose-response log (inhibitor) vs. response -variable slope (four parameters) nonlinear regression feature available in GraphPad Prism 5.0 (or Dotmatics).
Background: Reporter assays use an easily measured gene product as a stand-in for the process of interest.

A further assay deals with SW480 colon cancer cells. The experiment in a line: Cell viability assay (CellTiter-Blue) in SW480 colon cancer cells. As to conditions: Homo sapiens; for EC50: 96 h, SW480 cell viability, four days, CellTiter-Blue; for inhibition at 10 µM: SW480, read-out: percent inhibition at 10 μM. As to the method: Representative compounds were screened using the following assay procedure to assess the effect on cell viability as described below.
Approximately 2×10^3 SW480 colon cancer cells were seeded into each well and allowed to incubate in the presence or absence of compound for four days at 37° C./5% CO2. Eight replicates of DMSO-treated cells served as controls and cells treated with compound were performed in duplicate.
After incubation, 20 μL of CellTiter-Blue (Promega) was added to each well allowed to incubate for approximately 3 hours. This reagent was a buffered solution which contains resazurin, metabolically active cells were able to reduce rezarurin (blue) into resorufin (pink) which was highly fluorescent. This measured fluorescence was used as a readout for cell viability.
In general terms: Resazurin is reduced to fluorescent resorufin, in cell work by metabolically active cells.

Regarding `CC(C)CC(=O)Nc1cncc(-c2cc3c(-c4cc5c(-c6cccc(F)c6)cncc5[nH]4)n[nH]c3cn2)c1` [Compound 2, N-(5-(3-(4-(3-Fluorophenyl)-1 H-pyrrolo[2,3-c]pyridin-2-yl)-1 H-pyrazolo[3,4-c]pyridin-5-yl)pyridin-3-yl)-3-methylbutanamide], the EC50 in assay [1] is 2230 nM; with IL-6, over 10 µM; with Wnt activity, over 10000 nM; in the assay with SW480 colon cancer cells, over 10000 nM. Also, the inhibition at 10 µM is 37.2% in the assay on IL-6, 5.6% in the assay on Wnt activity and 25.4% in the assay on SW480 colon cancer cells.

`CN(C)c1cncc(-c2cc3c(-c4cc5c(-c6cccc(F)c6)cncc5[nH]4)n[nH]c3cn2)c1` [Compound 7, 5-(3-(4-(3-Fluorophenyl)-1H-pyrrolo[2,3-c]pyridin-2-yl)-1H-pyrazolo[3,4-c]pyridin-5-yl)-N,N-dimethylpyridin-3-amine]: the EC50 in assay [1] turned out to be 1040 nM; in the assay on IL-6, 9.84 µM; in the assay with Wnt activity it was 2330 nM; in the assay with SW480 colon cancer cells it was 1260 nM.

As to `CCC(=O)Nc1cncc(-c2cc3c(-c4cc5c(-c6ccc(F)cc6)cncc5[nH]4)n[nH]c3cn2)c1` [Compound 29, N-(5-(3-(4-(4-Fluorophenyl)-1H-pyrrolo[2,3-c]pyridin-2-yl)-1H-pyrazolo[3,4-c]pyridin-5-yl)pyridin-3-yl)propionamide], the EC50 in assay [1] was over 10000 nM; in the assay with IL-6, over 10 µM; in the assay with Wnt activity it was over 10000 nM; in the assay with SW480 colon cancer cells it was over 10000 nM. The inhibition at 10 µM in assay [1] (read-out: percent inhibition at 10 μM) was determined as 49.1%; with IL-6, 43%; in the assay with Wnt activity, 37.8%; with SW480 colon cancer cells it was 29.6%.

Take `Cc1ccncc1-c1cc2c(-c3cc4c(-c5ccc(F)cc5)cncc4[nH]3)n[nH]c2cn1` [Compound 33, 3-(4-(4-Fluorophenyl)-1H-pyrrolo[2,3-c]pyridin-2-yl)-5-(4-methylpyridin-3-yl)-1H-pyrazolo[3,4-c]pyridine]: the 50% effective concentration (EC50) worked out at 333 nM in assay [1], 4.58 µM with IL-6, 1840 nM with Wnt activity and 1090 nM with SW480 colon cancer cells.

Take `CC(C)(C)C(=O)Nc1cncc(-c2cc3c(-c4cc5c(-c6ccc(F)cc6)cncc5[nH]4)n[nH]c3cn2)c1` [Compound 36, N-(5-(3-(4-(4-Fluorophenyl)-1H-pyrrolo[2,3-c]pyridin-2-yl)-1H-pyrazolo[3,4-c]pyridin-5-yl)pyridin-3-yl)pivalamide]: the EC50 is 299 nM in assay [1], over 10 µM in the assay with IL-6, 1600 nM in the assay on Wnt activity and 1100 nM with SW480 colon cancer cells. For the same compound, the inhibition at 10 µM in the assay with IL-6 was 29.6%.

`CC(C)Nc1cncc(-c2cc3c(-c4cc5c(-c6ccc(F)cc6)cncc5[nH]4)n[nH]c3cn2)c1` [Compound 40, 5-(3-(4-(4-Fluorophenyl)-1H-pyrrolo[2,3-c]pyridin-2-yl)-1H-pyrazolo[3,4-c]pyridin-5-yl)-N-isopropylpyridin-3-amine]: the EC50 is 141 nM in assay [1], 2.47 µM with IL-6, 937 nM with Wnt activity and 1290 nM with SW480 colon cancer cells.

Take `CC(C)(C)CC(=O)Nc1cncc(-c2cc3c(-c4cc5c(-c6ccc(F)cc6)cncc5[nH]4)n[nH]c3cn2)c1` [Compound 44, N-(5-(3-(4-(4-Fluorophenyl)-1H-pyrrolo[2,3-c]pyridin-2-yl)-1H-pyrazolo[3,4-c]pyridin-5-yl)pyridin-3-yl)-3,3-dimethylbutanamide]: the EC50 is 434 nM in assay [1], over 10 µM with IL-6, 679 nM in the assay with Wnt activity and 3510 nM in the assay on SW480 colon cancer cells. In addition, the inhibition at 10 µM in the assay with IL-6 is 16.2%.

Regarding `O=C(Nc1cncc(-c2cc3c(-c4cc5c(-c6ccc(F)cc6)cncc5[nH]4)n[nH]c3cn2)c1)C1CCC1` [Compound 49, N-(5-(3-(4-(4-Fluorophenyl)-1H-pyrrolo[2,3-c]pyridin-2-yl)-1H-pyrazolo[3,4-c]pyridin-5-yl)pyridin-3-yl)cyclobutanecarboxamide], the EC50 in assay [1] was 3040 nM; with IL-6, over 10 µM; with Wnt activity, 3650 nM; in the assay on SW480 colon cancer cells it was over 10000 nM. In addition, the results for the inhibition at 10 µM with IL-6 and in the assay on SW480 colon cancer cells were 42.5% and 36%, respectively.

What is called EC50 is the concentration at which the effect is half-maximal. Low readings indicate greater potency, high ones weaker potency. Broadly, the inhibition is the change of the read-out against control, counted positive when it falls.
